Measured values from patent US9309242B2, “Substituted pyrido[2,3-b]pyrazines as FGFR kinase inhibitors” (priority 2011, dated 2016).
pIC50: −log10 of the molar value.

Legend:
[1] = target: FGFR4 (h) (Homo sapiens, UniProt P22455); assay: FGFR4 (enzymatic assay), TR-FRET; format: biochemical; settings: FGFR 4 pIC50, enzymatic assay
[2] = test system: Ba/F3-FGFR3-transfected cells; assay: Ba/F3-FGFR3 (plus IL3) cellular proliferation assay, counterscreen with 10 ng/ml murine IL3; format: cell-based; settings: plus IL3 (10 ng/ml murine IL3, counterscreen); read-out: BAF3-FGFR3 (PLUS IL3) pIC50 (converted)
How it was run: (§1)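 With or without 10 ng/ml murine IL3, FGFR3-dependent Ba/F3 cells were treated 24 h with compound, then viability was gauged by Alamar Blue fluorescence after 4 h (ex 540/em 590 nm).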

[3] = target: KDR (h) (Homo sapiens, UniProt P35968); assay: KDR (VEGFR2) (enzymatic assay), TR-FRET; format: biochemical; settings: read-out: VEGFR 2 (KDR) pIC50 (converted)
How it was run: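 Read-out is TR-FRET (ex 340 nm, em 620 and 655 nm) in RFU, after an EDTA stop carrying Eu-labelled anti-phosphotyrosine and SA-XL-665 (60 min, RT). The preceding kinase reaction ran 120 min at RT with 150 ng/ml enzyme, 500 nM Btn-Flt3 and 3 μM ATP.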

[4] = target: FGFR2 (h) (Homo sapiens, UniProt P21802); assay: FGFR2 (enzymatic assay), TR-FRET; format: biochemical; settings: enzymatic assay; read-out: FGFR 2 pIC50 (converted)
How it was run: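 Kinase reaction in 50 mM HEPES pH 7.5 with 6 mM MnCl2, 1 mM DTT, 0.1 mM Na3VO4 and 0.01% Triton-X-100 contained FGFR2 (h) at 150 ng/ml. Biotinylated Flt3 peptide (500 nM) served as substrate with 0.4 μM ATP, compound added in 1% DMSO final.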

[5] = test system: Ba/F3-KDR-transfected cells; assay: Ba/F3-KDR (plus IL3) cellular proliferation assay, counterscreen with 10 ng/ml murine IL3; format: cell-based; settings: plus IL3 (10 ng/ml murine IL3, counterscreen); read-out: BAF3-KDR (PLUS IL3) pIC50 (converted)
How it was run: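 20000 cells/well, RPMI-1640 + 10% FBS + 2 mM L-Gln; compound 24 h, 37° C/5% CO2; Alamar Blue 4 h; RFU ex540/em590.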

[6] = target: T1, Ba/F3-FGFR3-transfected cells (Homo sapiens, UniProt P22607); assay: Ba/F3-FGFR3 (minus IL3) cellular proliferation assay, Alamar Blue; format: cell-based
T1 construct: BAF3-FGFR3 (MIN IL3) pIC50; other: minus IL3
How it was run: as §1

[7] = target: FGFR3 (h) (Homo sapiens, UniProt P22607); assay: FGFR3 (enzymatic assay), TR-FRET; format: biochemical; settings: read-out: FGFR 3 pIC50 (converted)
Description: Time-Resolved Fluorescence Resonance Energy Transfer (TR-FRET) signal (ex340 nm.

[8] = test system: Ba/F3-FGFR1-transfected cells; assay: Ba/F3-FGFR1 (plus IL3) cellular proliferation assay, counterscreen with 10 ng/ml murine IL3; format: cell-based; settings: plus IL3 (10 ng/ml murine IL3, counterscreen); read-out: BAF3-FGFR1 (PLUS IL3) pIC50 (converted)
How it was run: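 Ba/F3-FGFR1 cells (20000/well) in RPMI-1640 with 10% FBS exposed to compound for 24 h at 37° C., 5% CO2, then Alamar Blue (resazurin) added for 4 h; fluorescence read at ex 540/em 590 nm. Counterscreen run identically with 10 ng/ml murine IL3.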

[9] = target: T2, Ba/F3-FGFR1-transfected cells (Homo sapiens, UniProt P11362); assay: Ba/F3-FGFR1 (minus IL3) cellular proliferation assay, Alamar Blue; format: cell-based
T2 construct: BAF3-FGFR1 (MIN IL3) pIC50; other: minus IL3
How it was run: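 Viability of transfected Ba/F3-FGFR1 cells (20000 per well, RPMI-1640 with 10% FBS and 2 mM L-glutamine) was scored by resazurin-based Alamar Blue reduction over 4 h, after 24 h treatment with compound at 37 °C under 5% CO2.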

FGFR3 (h), sequence (P22607 23-806): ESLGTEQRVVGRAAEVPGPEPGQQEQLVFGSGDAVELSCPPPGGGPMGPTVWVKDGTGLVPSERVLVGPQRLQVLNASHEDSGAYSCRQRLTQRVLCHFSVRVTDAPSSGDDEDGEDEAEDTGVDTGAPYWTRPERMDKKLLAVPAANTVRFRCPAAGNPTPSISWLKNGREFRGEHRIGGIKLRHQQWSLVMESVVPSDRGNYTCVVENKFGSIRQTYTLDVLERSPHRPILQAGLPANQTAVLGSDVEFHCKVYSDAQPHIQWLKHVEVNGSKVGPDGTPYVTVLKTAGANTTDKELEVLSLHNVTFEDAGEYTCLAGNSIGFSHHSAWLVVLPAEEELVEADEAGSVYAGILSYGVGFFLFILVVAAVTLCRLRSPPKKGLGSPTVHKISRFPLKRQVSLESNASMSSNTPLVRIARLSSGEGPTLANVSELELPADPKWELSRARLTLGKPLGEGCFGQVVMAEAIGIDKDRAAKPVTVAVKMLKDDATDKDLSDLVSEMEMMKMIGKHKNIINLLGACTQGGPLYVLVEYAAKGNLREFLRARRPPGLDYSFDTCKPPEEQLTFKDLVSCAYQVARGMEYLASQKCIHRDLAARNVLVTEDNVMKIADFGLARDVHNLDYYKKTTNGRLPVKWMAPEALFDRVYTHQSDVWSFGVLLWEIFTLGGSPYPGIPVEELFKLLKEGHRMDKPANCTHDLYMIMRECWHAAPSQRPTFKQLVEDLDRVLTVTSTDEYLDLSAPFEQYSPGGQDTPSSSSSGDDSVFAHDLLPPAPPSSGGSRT
FGFR2 (h), sequence (P21802 22-821): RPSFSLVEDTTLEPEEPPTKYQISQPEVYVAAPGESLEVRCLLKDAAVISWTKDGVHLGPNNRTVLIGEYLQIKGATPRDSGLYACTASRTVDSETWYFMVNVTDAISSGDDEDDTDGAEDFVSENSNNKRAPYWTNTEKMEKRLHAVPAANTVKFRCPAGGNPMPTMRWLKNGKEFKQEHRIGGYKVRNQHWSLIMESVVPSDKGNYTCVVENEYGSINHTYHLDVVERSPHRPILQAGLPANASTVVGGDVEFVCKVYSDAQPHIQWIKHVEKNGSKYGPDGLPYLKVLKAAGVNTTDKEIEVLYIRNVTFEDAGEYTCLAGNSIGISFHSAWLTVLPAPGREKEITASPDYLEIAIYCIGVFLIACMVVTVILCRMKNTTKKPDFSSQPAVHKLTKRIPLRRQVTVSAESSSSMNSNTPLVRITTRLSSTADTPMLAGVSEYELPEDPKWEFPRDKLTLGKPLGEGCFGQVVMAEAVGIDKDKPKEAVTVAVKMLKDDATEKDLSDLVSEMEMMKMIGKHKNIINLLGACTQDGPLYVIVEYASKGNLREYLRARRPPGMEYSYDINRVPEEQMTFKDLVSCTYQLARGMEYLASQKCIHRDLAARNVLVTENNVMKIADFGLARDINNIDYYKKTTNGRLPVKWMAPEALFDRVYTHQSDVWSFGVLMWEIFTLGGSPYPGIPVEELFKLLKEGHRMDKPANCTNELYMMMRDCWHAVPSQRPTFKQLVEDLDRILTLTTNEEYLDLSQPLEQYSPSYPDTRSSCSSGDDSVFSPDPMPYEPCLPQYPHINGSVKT
KDR (h), sequence (P35968 20-1356): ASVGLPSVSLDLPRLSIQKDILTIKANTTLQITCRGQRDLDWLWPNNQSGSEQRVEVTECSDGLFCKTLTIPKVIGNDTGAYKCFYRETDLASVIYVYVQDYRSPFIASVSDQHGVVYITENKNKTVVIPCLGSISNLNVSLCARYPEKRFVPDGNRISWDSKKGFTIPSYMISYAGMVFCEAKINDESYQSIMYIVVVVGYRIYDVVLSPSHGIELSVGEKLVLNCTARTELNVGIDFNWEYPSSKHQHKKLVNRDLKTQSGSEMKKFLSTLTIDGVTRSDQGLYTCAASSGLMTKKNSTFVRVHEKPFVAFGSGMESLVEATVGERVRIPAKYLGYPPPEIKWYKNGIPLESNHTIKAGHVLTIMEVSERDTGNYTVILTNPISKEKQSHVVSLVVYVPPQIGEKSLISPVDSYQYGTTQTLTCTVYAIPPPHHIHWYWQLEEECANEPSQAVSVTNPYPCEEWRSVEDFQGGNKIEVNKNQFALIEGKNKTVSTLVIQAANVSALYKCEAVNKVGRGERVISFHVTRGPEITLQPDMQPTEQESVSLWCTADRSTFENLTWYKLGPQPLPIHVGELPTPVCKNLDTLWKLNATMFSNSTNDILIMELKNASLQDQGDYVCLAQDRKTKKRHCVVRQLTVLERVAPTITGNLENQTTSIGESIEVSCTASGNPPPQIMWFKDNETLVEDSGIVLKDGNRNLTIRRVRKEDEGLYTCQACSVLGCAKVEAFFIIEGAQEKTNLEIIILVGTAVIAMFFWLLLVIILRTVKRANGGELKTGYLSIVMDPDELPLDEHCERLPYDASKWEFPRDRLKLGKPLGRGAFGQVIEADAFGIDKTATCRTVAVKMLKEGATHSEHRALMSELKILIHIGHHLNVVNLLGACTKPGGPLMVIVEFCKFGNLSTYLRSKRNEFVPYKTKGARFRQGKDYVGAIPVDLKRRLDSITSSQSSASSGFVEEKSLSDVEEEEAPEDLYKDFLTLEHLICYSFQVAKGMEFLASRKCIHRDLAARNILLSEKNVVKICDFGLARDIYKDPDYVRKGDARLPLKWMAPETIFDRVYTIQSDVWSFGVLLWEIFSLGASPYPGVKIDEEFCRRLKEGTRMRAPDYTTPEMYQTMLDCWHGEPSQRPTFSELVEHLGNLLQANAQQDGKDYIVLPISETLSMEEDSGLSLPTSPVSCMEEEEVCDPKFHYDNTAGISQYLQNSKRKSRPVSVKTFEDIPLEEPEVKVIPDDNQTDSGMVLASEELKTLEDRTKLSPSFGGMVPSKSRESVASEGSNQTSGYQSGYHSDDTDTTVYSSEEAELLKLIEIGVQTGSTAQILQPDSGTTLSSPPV
T1 sequence (P22607 whole entry, change not shown): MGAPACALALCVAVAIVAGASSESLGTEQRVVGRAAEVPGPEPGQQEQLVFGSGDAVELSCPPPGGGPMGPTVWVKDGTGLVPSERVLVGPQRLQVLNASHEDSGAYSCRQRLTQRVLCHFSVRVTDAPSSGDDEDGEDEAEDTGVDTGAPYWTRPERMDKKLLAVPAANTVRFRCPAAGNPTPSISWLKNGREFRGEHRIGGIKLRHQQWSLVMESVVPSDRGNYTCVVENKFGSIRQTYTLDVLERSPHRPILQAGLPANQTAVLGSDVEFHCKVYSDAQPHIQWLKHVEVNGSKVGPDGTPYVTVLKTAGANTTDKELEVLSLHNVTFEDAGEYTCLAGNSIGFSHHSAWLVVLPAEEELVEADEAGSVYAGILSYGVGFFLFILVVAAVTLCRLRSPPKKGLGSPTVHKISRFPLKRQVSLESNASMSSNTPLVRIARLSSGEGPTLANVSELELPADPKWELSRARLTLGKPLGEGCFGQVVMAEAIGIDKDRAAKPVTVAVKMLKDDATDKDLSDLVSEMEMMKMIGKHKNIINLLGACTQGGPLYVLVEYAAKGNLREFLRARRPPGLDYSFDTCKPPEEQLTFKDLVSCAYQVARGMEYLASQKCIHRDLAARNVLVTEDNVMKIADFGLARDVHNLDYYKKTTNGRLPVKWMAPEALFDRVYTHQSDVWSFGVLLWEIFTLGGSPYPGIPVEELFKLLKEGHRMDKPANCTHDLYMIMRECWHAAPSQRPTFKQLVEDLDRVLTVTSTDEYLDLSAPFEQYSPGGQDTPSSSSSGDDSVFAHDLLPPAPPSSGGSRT
T2 sequence (P11362 whole entry, change not shown): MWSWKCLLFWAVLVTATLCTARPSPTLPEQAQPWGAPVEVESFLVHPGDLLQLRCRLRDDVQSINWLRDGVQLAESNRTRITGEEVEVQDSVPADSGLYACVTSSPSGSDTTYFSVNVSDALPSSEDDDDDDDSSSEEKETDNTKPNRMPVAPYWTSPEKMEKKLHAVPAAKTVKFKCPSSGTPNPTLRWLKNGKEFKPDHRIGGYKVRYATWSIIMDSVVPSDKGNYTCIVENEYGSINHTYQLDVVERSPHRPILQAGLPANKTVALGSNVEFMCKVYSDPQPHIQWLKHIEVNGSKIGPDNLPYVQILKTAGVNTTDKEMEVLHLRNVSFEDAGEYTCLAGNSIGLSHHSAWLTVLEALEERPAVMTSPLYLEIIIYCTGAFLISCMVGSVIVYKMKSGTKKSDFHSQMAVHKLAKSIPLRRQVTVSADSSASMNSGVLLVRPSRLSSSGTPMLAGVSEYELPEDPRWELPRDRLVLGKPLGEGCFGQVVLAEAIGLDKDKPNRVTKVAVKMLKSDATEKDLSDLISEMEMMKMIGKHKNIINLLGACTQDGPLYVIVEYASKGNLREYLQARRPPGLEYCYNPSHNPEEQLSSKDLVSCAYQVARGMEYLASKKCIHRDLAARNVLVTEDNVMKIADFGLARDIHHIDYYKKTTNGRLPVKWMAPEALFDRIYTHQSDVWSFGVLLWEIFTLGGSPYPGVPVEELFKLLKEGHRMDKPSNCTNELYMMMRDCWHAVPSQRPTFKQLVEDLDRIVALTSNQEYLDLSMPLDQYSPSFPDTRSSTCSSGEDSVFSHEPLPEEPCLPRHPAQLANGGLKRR

| SMILES | pIC50 [1] | IC50 [2] | IC50 [3] | IC50 [4] | IC50 [5] | BAF3-FGFR3 (MIN IL3) pIC50 [6] | IC50 [7] | IC50 [8] | BAF3-FGFR1 (MIN IL3) pIC50 [9] |
| --- | --- | --- | --- | --- | --- | --- | --- | --- | --- |
| COc1cc(OC)cc(N(CC(C)(C)O)c2ccc3ncc(-c4cnn(C)c4)nc3n2)c1 [Compound 276] | 7.16 | > 10 µM | 141 nM | 9.12 nM | > 10 µM | 6.41 | 8.32 nM | > 10 µM | 6.28 |
| CCn1/c(=N/c2c(F)c(OC)cc(OC)c2F)ccc2ncc(-c3cnn(C)c3)nc21 [Compound 257] | 9.34 | > 10 µM | 3.16 nM | 1.35 nM | > 10 µM | ~8.66 | 0.692 nM | > 10 µM | 8.58 |
